Experimental data as given in patent US5663207A, “Gem-dichlorocyclopropanes as antitumor agents” (priority 1995, dated 1997).

Tests used:
[1] = system: Immature Swiss-Webster female mice (estradiol-stimulated uterine weight); assay: Antiuterotrophic assay for antiestrogenic activity in immature mice; type: in vivo, mouse (Swiss-Webster); conditions: 0.4, 0.8, and 1.6 mg; three-day assay; estradiol 0.03 μg
Description: (§1) The biological evaluation of the test compounds consisted of the in vitro rat cytosolic estradiol receptor binding assay, the in vivo immature mouse uterotrophic (estrogenic) and antiuterotrophic (antiestrogenic) assays, and the in vitro suppression of the proliferation of the ER positive MCF-7 human breast cancer cell line.
Vital-free immature female Swiss-Webster mice were obtained at 17-19 days of age from Sasco weighing 8-10 g, and were used in the uterotrophic and antiuterotrophic assays. Immature female Sprague-Dawley rats, obtained at 17-19 days of age from Sasco, weighing 28-33 g, were used as sources of uteri for the estradiol receptor binding assay. Animals were housed in wire topped polycarbonate cages at six animals per cage, with the environment controlled at 25° C. and a 12 h light/dark cycle. […]
The antiestrogenic assay was conducted as described for the estrogenic assay, except that each mouse in the cyclopropyl treatment groups received a standard stimulating dose of estradiol (0.03 μg) in sesame oil (0.1 mL) and the test compounds or MER 25 were administered in isopropyl myristate (0.05 mL) in a dosage range of 0.4, 0.8 and 1.6 mg (total dose). […] Antiestrogenic activity was measured as a decrease in the estradiol-stimulated […] response in groups that received both the test compound and estradiol as compared to the group treated only with estradiol.

[2] = system: Immature Swiss-Webster female mice (uterine weight); assay: Uterotrophic assay for estrogenic activity in immature mice; type: in vivo, mouse (Swiss-Webster)
Description: as §1
Vital-free immature female Swiss-Webster mice were obtained at 17-19 days of age from Sasco weighing 8-10 g, and were used in the uterotrophic and antiuterotrophic assays. Immature female Sprague-Dawley rats, obtained at 17-19 days of age from Sasco, weighing 28-33 g, were used as sources of uteri for the estradiol receptor binding assay. Animals were housed in wire topped polycarbonate cages at six animals per cage, with the environment controlled at 25° C. and a 12 h light/dark cycle. The animals received a diet of Wayne Lab Blox rodent chow and tap water ad libitum.
Immature Swiss-Webster female mice (8-15 g) at 17-19 days of age were used. Estradiol was used in the dosage range of […] (total dose) as the assay standard. Each cyclopropyl analogue was examined at doses of 5, 25, and 100 μg (total dose). […] Estrogenic activity was measured as an increase in uterine weight produced by each test compound.

`Oc1ccc(C2(c3ccc(O)cc3)C(Cl)(Cl)C23CCCCC3)cc1` [Compound 30, 1,1-Dichloro-2,2-bis-(p-hydroxyphenyl)-spiro[2.5]octane] was tested, and the “antiestrogenic activity: effect on estradiol-induced uterine weight gain (in words)” value [1] was “augmented uterotrophic effects beyond the stimulating dose of estradiol”, the “uterine weight response (estrogenic activity, in words)” value ([2]; doses of 5, 25 and 100 μg (total dose)) was “dose-dependent increase in uterine weight” and the “relative potency (uterotrophic) versus estradiol” value ([2]; of that of estradiol, doses of 5, 25, and 100 μg) was 0.05%.
